Activity calls are given as the source filed them. No rule for the calls is given here.
How the values were obtained:
Assay in all cases: kinase panel binding selectivity, selectivity assay, biochemical, KINOMEscan (AID 1982)
[1] = target: Serine/threonine-protein kinase MRCK alpha (Homo sapiens) (UniProt Q5VT25); details: KINOMEscan 353-kinase binding panel, qPCR; MRCKA; at 10 µM; active compounds read low
[2] = target: Mitogen-activated protein kinase kinase kinase 10 (Homo sapiens) (UniProt Q02779); details: KINOMEscan 353-kinase binding panel, qPCR; MLK2; at 10 µM; active compounds read low
[3] = target: Tyrosine-protein kinase SYK (Homo sapiens) (UniProt P43405); details: KINOMEscan 353-kinase binding panel, qPCR, at 10 µM, active compounds read low
[4] = tested on: MST4; details: KINOMEscan 353-kinase binding panel, qPCR, at 10 µM, active compounds read low
[5] = tested on: NEK6; details: KINOMEscan 353-kinase binding panel, qPCR, at 10 µM, active compounds read low
[6] = tested on: STK35; details: KINOMEscan 353-kinase binding panel, qPCR, at 10 µM, active compounds read low
[7] = target: Platelet-derived growth factor receptor alpha (Homo sapiens) (UniProt P16234); details: KINOMEscan 353-kinase binding panel, qPCR; PDGFRA; at 10 µM; active compounds read low
[8] = tested on: EPHA7; details: KINOMEscan 353-kinase binding panel, qPCR, at 10 µM, active compounds read low
[9] = tested on: MEK4; details: KINOMEscan 353-kinase binding panel, qPCR, at 10 µM, active compounds read low
[10] = target: RAF proto-oncogene serine/threonine-protein kinase (Homo sapiens) (UniProt P04049); details: KINOMEscan 353-kinase binding panel, qPCR; RAF1; at 10 µM; active compounds read low
[11] = target: Proto-oncogene tyrosine-protein kinase Src (Homo sapiens) (UniProt P12931); details: KINOMEscan 353-kinase binding panel, qPCR, at 10 µM, active compounds read low
[12] = tested on: NEK9; details: KINOMEscan 353-kinase binding panel, qPCR, at 10 µM, active compounds read low
[13] = target: Activated CDC42 kinase 1 (Homo sapiens) (UniProt Q07912); details: KINOMEscan 353-kinase binding panel, qPCR; TNK2; at 10 µM; active compounds read low
[14] = target: Cyclin-dependent kinase 19 (Homo sapiens) (UniProt Q9BWU1); details: KINOMEscan 353-kinase binding panel, qPCR; CDK11; at 10 µM; active compounds read low
[15] = tested on: INSRR; details: KINOMEscan 353-kinase binding panel, qPCR, at 10 µM, active compounds read low
[16] = tested on: EPHA4; details: KINOMEscan 353-kinase binding panel, qPCR, at 10 µM, active compounds read low
[17] = target: BDNF/NT-3 growth factors receptor (Homo sapiens) (UniProt Q16620); details: KINOMEscan 353-kinase binding panel, qPCR; TRKB; at 10 µM; active compounds read low
[18] = tested on: FGFR2; details: KINOMEscan 353-kinase binding panel, qPCR, at 10 µM, active compounds read low
[19] = target: Aurora kinase A (Homo sapiens) (UniProt O14965); details: KINOMEscan 353-kinase binding panel, qPCR; AURKA; at 10 µM; active compounds read low
[20] = target: Tyrosine-protein kinase receptor TYRO3 (Homo sapiens) (UniProt Q06418); details: KINOMEscan 353-kinase binding panel, qPCR, at 10 µM, active compounds read low
[21] = target: Serine/threonine-protein kinase PAK 6 (Homo sapiens) (UniProt Q9NQU5); details: KINOMEscan 353-kinase binding panel, qPCR; PAK6; at 10 µM; active compounds read low
[22] = tested on: RPS6KA2(Kin.Dom.1); details: KINOMEscan 353-kinase binding panel, qPCR, at 10 µM, active compounds read low
[23] = target: Ribosomal protein S6 kinase alpha-5 (Homo sapiens) (UniProt O75582); details: KINOMEscan 353-kinase binding panel, qPCR, at 10 µM, active compounds read low
[24] = target: STE20-like serine/threonine-protein kinase (Homo sapiens) (UniProt Q9H2G2); details: KINOMEscan 353-kinase binding panel, qPCR; SLK; at 10 µM; active compounds read low
[25] = target: Tyrosine-protein kinase JAK3 (Homo sapiens) (UniProt P52333); details: KINOMEscan 353-kinase binding panel, qPCR; JAK3(Kin.Dom.2); at 10 µM; active compounds read low
[26] = tested on: MERTK; details: KINOMEscan 353-kinase binding panel, qPCR, at 10 µM, active compounds read low
[27] = tested on: CDKL2; details: KINOMEscan 353-kinase binding panel, qPCR, at 10 µM, active compounds read low
[28] = tested on: MST3; details: KINOMEscan 353-kinase binding panel, qPCR, at 10 µM, active compounds read low
[29] = target: Tyrosine-protein kinase FRK (Homo sapiens) (UniProt P42685); details: KINOMEscan 353-kinase binding panel, qPCR, at 10 µM, active compounds read low
[30] = tested on: PIK3CA(E545K); details: KINOMEscan 353-kinase binding panel, qPCR, at 10 µM, active compounds read low
[31] = target: Protein kinase C delta type (Homo sapiens) (UniProt Q05655); details: KINOMEscan 353-kinase binding panel, qPCR; PRKCD; at 10 µM; active compounds read low
[32] = tested on: EPHA3; details: KINOMEscan 353-kinase binding panel, qPCR, at 10 µM, active compounds read low
[33] = tested on: MKNK1; details: KINOMEscan 353-kinase binding panel, qPCR, at 10 µM, active compounds read low
[34] = target: Dual specificity protein kinase CLK4 (Homo sapiens) (UniProt Q9HAZ1); details: KINOMEscan 353-kinase binding panel, qPCR, at 10 µM, active compounds read low

Measured: percent of control binding

Ribosomal protein S6 kinase alpha-5 (Homo sapiens), sequence (O75582 whole entry, looked up): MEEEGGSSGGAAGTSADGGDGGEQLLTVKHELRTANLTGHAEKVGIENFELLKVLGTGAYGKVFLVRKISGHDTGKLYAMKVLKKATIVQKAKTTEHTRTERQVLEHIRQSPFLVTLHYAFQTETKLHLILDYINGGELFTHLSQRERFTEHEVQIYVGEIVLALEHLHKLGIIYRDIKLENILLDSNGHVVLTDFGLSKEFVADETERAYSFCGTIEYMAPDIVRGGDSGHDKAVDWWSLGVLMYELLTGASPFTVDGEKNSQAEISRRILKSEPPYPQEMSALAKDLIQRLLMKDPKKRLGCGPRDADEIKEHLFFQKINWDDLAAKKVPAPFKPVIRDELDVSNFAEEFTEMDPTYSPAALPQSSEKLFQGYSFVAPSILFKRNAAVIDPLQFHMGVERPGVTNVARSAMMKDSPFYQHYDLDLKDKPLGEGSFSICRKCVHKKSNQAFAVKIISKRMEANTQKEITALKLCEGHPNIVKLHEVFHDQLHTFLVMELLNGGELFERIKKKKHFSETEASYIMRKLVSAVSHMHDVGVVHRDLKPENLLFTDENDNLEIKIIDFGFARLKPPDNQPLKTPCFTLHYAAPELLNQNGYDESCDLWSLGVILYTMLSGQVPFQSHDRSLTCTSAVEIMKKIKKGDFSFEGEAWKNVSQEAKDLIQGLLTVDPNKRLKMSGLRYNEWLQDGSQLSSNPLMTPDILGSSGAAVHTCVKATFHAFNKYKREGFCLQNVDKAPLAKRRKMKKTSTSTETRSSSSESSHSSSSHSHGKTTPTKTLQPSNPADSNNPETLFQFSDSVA
Protein kinase C delta type (Homo sapiens), sequence (Q05655 whole entry, looked up): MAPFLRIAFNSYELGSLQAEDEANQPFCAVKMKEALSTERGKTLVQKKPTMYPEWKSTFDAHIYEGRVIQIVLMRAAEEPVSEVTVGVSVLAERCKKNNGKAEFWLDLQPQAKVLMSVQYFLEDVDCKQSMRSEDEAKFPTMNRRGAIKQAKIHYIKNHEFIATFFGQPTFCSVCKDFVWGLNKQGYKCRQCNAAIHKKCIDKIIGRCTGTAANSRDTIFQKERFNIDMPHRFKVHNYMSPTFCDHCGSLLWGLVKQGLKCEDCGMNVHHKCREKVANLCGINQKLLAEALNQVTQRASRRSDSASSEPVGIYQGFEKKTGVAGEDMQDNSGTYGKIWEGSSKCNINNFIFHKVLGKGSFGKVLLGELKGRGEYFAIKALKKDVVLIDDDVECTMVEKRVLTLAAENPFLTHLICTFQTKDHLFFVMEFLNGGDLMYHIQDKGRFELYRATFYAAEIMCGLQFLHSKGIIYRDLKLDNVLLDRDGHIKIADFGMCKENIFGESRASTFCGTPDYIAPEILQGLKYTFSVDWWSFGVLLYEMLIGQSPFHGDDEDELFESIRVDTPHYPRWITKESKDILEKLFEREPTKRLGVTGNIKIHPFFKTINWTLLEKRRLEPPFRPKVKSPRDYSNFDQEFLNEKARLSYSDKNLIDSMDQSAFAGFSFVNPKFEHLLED
Tyrosine-protein kinase receptor TYRO3 (Homo sapiens), sequence (Q06418 whole entry, looked up): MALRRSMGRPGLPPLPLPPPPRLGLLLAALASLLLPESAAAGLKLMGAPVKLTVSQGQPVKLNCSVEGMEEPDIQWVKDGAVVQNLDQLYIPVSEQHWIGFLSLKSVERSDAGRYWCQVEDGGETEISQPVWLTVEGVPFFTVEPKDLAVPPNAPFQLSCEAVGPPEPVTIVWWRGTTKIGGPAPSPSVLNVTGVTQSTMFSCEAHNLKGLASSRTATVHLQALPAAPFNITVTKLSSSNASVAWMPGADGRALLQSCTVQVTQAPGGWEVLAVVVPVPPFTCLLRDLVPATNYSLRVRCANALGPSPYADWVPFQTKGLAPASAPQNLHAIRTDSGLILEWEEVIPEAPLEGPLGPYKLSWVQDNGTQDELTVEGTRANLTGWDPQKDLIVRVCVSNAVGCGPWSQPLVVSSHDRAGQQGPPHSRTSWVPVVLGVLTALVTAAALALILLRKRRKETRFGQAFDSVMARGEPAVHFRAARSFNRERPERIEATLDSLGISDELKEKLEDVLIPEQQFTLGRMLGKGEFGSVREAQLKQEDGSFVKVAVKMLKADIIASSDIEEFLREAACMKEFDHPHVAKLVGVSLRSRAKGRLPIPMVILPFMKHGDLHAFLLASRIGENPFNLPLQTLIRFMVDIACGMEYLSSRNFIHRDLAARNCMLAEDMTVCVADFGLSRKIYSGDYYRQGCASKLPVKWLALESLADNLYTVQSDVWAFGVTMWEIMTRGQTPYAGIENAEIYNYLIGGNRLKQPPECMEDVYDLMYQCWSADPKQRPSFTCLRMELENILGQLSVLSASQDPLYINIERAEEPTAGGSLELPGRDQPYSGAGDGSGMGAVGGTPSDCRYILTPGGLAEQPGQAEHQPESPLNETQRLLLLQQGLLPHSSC
BDNF/NT-3 growth factors receptor (Homo sapiens), sequence (Q16620 whole entry, looked up): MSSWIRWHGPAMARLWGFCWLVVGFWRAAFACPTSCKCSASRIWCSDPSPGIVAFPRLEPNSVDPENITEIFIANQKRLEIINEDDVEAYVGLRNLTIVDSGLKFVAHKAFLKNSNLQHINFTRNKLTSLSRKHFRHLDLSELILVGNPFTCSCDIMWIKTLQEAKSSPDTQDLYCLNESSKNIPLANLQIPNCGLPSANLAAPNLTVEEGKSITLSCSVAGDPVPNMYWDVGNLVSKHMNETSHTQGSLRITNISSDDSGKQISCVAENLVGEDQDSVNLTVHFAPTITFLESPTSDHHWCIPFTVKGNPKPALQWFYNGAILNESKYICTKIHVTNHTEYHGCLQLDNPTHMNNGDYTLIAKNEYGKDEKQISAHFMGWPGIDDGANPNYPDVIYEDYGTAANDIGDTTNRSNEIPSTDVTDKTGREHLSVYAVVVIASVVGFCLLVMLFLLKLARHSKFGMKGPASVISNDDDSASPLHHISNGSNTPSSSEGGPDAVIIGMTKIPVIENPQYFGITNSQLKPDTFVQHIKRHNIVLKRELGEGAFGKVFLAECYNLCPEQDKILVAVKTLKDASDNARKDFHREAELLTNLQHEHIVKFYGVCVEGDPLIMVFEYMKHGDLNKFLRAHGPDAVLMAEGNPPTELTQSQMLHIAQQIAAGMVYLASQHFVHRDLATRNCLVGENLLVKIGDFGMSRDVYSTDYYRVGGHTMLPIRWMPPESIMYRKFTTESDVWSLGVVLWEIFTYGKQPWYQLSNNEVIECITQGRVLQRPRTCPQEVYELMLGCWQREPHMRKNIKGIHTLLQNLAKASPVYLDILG
Platelet-derived growth factor receptor alpha (Homo sapiens), sequence (P16234 whole entry, looked up): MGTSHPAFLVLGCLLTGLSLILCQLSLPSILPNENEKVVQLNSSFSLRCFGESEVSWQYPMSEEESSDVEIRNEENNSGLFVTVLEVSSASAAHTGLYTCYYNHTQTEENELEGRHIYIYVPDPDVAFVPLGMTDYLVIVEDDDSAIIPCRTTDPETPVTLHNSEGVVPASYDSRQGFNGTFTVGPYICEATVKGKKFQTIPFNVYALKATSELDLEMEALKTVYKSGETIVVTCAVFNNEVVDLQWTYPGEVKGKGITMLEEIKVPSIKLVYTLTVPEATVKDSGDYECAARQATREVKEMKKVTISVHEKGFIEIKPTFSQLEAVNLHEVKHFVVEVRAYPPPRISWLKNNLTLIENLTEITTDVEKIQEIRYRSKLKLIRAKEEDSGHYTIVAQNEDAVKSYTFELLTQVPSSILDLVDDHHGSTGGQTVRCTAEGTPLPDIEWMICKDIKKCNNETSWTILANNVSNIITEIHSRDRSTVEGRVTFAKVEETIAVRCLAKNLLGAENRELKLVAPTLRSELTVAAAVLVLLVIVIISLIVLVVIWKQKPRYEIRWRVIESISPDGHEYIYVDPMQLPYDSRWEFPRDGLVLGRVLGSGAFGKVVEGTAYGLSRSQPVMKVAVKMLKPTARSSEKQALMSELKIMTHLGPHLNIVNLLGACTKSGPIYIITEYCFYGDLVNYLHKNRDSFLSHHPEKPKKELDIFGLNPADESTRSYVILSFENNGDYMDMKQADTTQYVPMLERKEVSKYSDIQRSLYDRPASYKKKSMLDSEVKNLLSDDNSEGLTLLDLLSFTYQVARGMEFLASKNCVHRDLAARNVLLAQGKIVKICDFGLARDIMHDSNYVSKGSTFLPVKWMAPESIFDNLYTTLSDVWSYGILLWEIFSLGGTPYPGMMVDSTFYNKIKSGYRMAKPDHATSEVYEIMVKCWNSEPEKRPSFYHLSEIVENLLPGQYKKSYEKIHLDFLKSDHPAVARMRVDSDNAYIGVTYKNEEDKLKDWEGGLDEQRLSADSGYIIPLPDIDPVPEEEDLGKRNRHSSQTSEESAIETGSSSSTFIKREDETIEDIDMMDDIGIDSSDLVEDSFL
Proto-oncogene tyrosine-protein kinase Src (Homo sapiens), sequence (P12931 whole entry, looked up): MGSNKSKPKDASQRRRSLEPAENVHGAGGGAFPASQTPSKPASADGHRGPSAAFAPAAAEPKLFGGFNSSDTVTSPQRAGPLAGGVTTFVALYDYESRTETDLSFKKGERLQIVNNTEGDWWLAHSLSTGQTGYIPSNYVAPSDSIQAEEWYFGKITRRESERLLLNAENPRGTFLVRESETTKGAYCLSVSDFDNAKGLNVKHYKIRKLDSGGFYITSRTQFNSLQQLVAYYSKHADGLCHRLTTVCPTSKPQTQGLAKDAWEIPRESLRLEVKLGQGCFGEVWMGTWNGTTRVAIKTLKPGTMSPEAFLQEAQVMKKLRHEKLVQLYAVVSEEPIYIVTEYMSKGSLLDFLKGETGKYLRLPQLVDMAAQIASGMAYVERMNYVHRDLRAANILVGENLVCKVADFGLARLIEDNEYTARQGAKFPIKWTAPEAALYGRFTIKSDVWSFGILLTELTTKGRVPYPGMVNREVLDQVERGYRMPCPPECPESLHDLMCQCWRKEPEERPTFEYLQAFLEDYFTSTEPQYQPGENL

Cc1cc2nc(NCCCO)n(CC(=O)c3cc(C(C)(C)C)c(O)c(C(C)(C)C)c3)c2cc1C
inactive: [1] 90% | [2] 100% | [3] 100% | [4] 100% | [5] 93% | [6] 100% | [7] 86% | [8] 87% | [9] 79% | [10] 43% | [11] 100% | [12] 100% | [13] 98% | [14] 75% | [15] 100% | [16] 86% | [17] 100% | [18] 100% | [19] 96% | [20] 100% | [21] 76% | [22] 90% | [23]; RPS6KA5(Kin.Dom.1) 100% | [23]; RPS6KA5(Kin.Dom.2) 100% | [24] 100% | [25] 100% | [26] 100% | [27] 96% | [28] 100% | [29] 89% | [30] 100% | [31] 100% | [32] 84% | [33] 75% | [34] 100%

— PubChem BioAssay AID1982 (Sanford-Burnham Center for Chemical Genomics, 2009)
